Reference: paper PMC10180155, “Thieno-Thiazolostilbenes, Thienobenzo-Thiazoles, and Naphtho-Oxazoles: Computational Study and Cholinesterase Inhibitory Activity” (Molecules, 2023)

Assays:
[1] = target: T1, BChE (EC 3.1.1.8, equine serum) (Equus caballus, UniProt P81908); assay: biochemical; format: biochemical; settings: for Inhibition (%) BChE: concentration for the maximal effect measured
T1 construct: BChE (EC 3.1.1.8, equine serum); purchased Sigma-Aldrich; host or cells: equine serum
Experimental: (§1) AChE and BChE inhibition were determined using a modified spectrophotometric Ellman’s method. Acetylthiocholine iodide (ATChI), S-butyrylthiocholine iodide (BTChI), AChE (EC 3.1.1.7, Electrophorus electricus, Type: V-S), BChE (EC 3.1.1.8, equine serum), and Trisma base were purchased from Sigma-Aldrich (St. Louis, MO, USA), while Ellman’s reagent 5,50-dithiobis-(2-nitrobenzoic acid) (DTNB) was purchased from Zwijndrecht (Antwerpen, Belgium). The reaction mixture contained 180 µL Tris-HCl buffer (50 mM, pH 8.0) or phosphate buffer, 10 µL of the enzyme (final concentration 0.03 U/mL), 10 µL of the tested solution, and 10 μL of DTNB (final concentration 0.3 mM). The reaction started with adding 10 μL of ATChI/BTChI (final concentration of 0.5 mM). The developing yellow color was measured at 405 nm over 6 min at room temperature using a 96-well microplate reader (IRE 96, SFRI Medical Diagnostics, Bordeaux, France). The experiment was run in triplicate. The percentage of enzyme inhibition was calculated from measured data according to the equation: Inhibition (%) = [(Ac − AT)/A.C.]∙100, where A.C. is the enzyme activity without the test sample, and AT is the enzyme activity with the test sample, calculated as mean values ± standard deviation. In the control measurement, the tested compound was replaced by a buffer solution. Non-enzymatic hydrolysis was measured as blank for each measurement. The IC50 value was calculated by a nonlinear fit of compound concentration (log) values vs. response.

[2] = target: T2, AChE (EC 3.1.1.7, Electrophorus electricus, Type: V-S) (Electrophorus electricus, UniProt O42275); assay: AChE inhibition, modified spectrophotometric Ellman's method; format: biochemical
T2 construct: purchased Sigma-Aldrich Type: V-S
T2 sequence (O42275 24-633): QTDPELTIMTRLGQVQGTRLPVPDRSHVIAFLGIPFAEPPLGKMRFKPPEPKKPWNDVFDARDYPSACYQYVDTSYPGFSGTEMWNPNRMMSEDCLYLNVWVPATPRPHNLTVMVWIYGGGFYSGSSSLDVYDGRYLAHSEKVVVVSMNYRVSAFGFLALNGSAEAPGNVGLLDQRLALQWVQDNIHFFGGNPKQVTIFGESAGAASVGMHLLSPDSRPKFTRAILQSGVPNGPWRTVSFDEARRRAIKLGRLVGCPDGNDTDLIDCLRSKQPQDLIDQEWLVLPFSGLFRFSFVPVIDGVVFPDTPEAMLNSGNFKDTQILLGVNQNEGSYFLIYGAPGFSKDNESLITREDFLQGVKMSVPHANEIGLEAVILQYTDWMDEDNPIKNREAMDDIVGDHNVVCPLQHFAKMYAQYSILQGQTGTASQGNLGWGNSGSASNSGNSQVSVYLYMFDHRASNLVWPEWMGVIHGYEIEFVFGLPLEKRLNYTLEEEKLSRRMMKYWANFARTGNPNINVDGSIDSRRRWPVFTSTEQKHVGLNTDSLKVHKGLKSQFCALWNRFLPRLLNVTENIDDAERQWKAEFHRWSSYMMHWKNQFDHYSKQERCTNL
Experimental: as §1, with “The experiment was run in triplicate.” left out, “In the control measurement, the tested compound was replaced by a buffer solution.” left out

[3] = Solubility as observed in the cholinesterase measurements; format: physicochemical; settings: did not allow measurements at higher concentrations
Excerpt: Tested compounds were active only toward BChE, and the results are presented in Table 2 and Figure 8 and Figure 9. Among stilbene derivatives, the best result is achieved by the derivative with a phenolic ring trans-8a and the thiophene derivative trans-1a (Table 2, Figure 9). […] Replacement of phenol from trans-8a with thiophene in trans-1a reduces the IC50 value by seven times. Replacing the methyl group from trans-1a with an isopropyl group in trans-2a (along with the inversion of the sulfur and nitrogen position) also reduces the activity. Furthermore, a change in geometry from trans-1a to cis-1a also diminished inhibitory activity, as was observed earlier.

T1 sequence (P81908 whole entry): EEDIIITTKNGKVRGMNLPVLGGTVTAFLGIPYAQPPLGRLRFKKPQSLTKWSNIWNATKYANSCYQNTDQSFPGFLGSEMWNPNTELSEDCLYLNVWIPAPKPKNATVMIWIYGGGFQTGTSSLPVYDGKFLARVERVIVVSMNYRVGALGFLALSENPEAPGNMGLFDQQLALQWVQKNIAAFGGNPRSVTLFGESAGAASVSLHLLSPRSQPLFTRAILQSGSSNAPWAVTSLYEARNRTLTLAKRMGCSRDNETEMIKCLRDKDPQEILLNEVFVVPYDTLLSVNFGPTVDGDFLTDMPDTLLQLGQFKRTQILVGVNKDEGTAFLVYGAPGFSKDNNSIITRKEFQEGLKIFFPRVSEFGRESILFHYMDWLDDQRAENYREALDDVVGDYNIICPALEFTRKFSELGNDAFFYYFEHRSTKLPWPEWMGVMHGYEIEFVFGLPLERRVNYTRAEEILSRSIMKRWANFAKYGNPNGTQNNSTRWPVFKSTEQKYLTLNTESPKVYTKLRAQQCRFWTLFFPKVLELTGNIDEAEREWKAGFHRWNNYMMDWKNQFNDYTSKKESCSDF

Compound: CC(=O)Nc1ncc(C=Cc2cccs2)s1 (mixture of isomers) [Compound 5a, N-(5-(2-(thiophen-2-yl)vinyl)thiazol-2-yl)acetamide]
- inhibitory activity toward BChE (in words) [1]: ineffective inhibitors
- inhibition at 250 µM ([1]; read-out: Inhibition (%) BChE): 30.6%

Compound: Cc1nc2c(ccc3sccc32)s1 [Compound 1, 2-methylthieno[2′,3′:5,6]benzo[1,2-d]thiazole]
- IC50 [1]: 107 µM
- inhibition at 500 µM ([1]; read-out: Inhibition (%) BChE): 79.1%

Compound: CC(C)c1nc2ccc3sccc3c2s1 [Compound 2, 2-isopropylthieno[3′,2′:3,4]benzo[1,2-d]thiazole]
- inhibition at 200 µM ([1]; read-out: Inhibition (%) BChE): 46.8%

Compound: Clc1nc2c(ccc3sccc32)s1 [Compound 3, 2-chlorothieno[2′,3′:5,6]benzo[1,2-d]thiazole]
- IC50 [1]: 51.1 µM
- inhibition at 250 µM ([1]; read-out: Inhibition (%) BChE): 75.4%

Compound: FC(F)(F)c1nc2c(ccc3sccc32)s1 [Compound 4, 2-(trifluoromethyl)thieno[2′,3′:5,6]benzo[1,2-d]thiazole]
- IC50 [1]: 41.9 µM
- inhibition at 200 µM ([1]; read-out: Inhibition (%) BChE): 70.8%

Compound: CC(=O)Nc1nc2c(ccc3sccc32)s1 [Compound 5, N-(thieno[2′,3′:5,6]benzo[1,2-d]thiazol-2-yl)acetamide]
- inhibition at 250 µM ([1]; read-out: Inhibition (%) BChE): 24.9%

Compound: c1ccc2c(c1)ccc1ncoc12 [Compound 11]
- inhibition at 188 µM ([1]; read-out: Inhibition (%) BChE): 0.9%

Compound: N#Cc1cccc2c1ccc1ncoc12 [Compound 12]
- inhibition at 176 µM ([1]; read-out: Inhibition (%) BChE): 40.9%

Compound: Cc1cccc2c1ccc1ncoc12 [Compound 13]
- IC50 [1]: 351 µM
- inhibition at 396.8 µM ([1]; read-out: Inhibition (%) BChE): 57.8%

Compound: Cc1ccc2ccc3ncoc3c2c1 [Compound 14]
- IC50 [1]: 155 µM
- inhibition at 173.6 µM ([1]; read-out: Inhibition (%) BChE): 63.3%

Compound: Cc1ccc2ccc3nc(C)oc3c2c1 [Compound 15]
- IC50 [1]: 44.4 µM
- inhibition at 368.6 µM ([1]; read-out: Inhibition (%) BChE): 98.3%

Compound: O=[N+]([O-])c1ccc2ccc3ncoc3c2c1 [Compound 16]
- IC50 [2]: 131 µM
- inhibition at 201.7 µM ([2]; read-out: % of inhibition AChE): 63.8%
- IC50 [1]: 137 µM
- inhibition at 201.7 µM ([1]; read-out: Inhibition (%) BChE): 64.9%

Compound: Cc1nc2ccc3ccc([N+](=O)[O-])cc3c2o1 [Compound 17]
- inhibition at 159.5 µM ([1]; read-out: Inhibition (%) BChE): 16.8%

Compound: COc1ccc2ccc3ncoc3c2c1 [Compound 18]
- inhibition at 273.6 µM ([1]; read-out: Inhibition (%) BChE): 38%

Compound: COc1ccc2ccc3nc(C)oc3c2c1 [Compound 19]
- IC50 [1]: 170 µM
- inhibition at 405.2 µM ([1]; read-out: Inhibition (%) BChE): 81.9%

Compound: CN(C)c1ccc2ccc3ocnc3c2c1 [Compound 20]
- IC50 [1]: 184 µM
- inhibition at 364.2 µM ([1]; read-out: Inhibition (%) BChE): 82.2%

Compound: Clc1ccc2ccc3ocnc3c2c1 [Compound 21]
- inhibition at 312.3 µM ([1]; read-out: Inhibition (%) BChE): 32.6%

Compound: Fc1ccc2ccc3ocnc3c2c1 [Compound 22]
- IC50 [1]: 128 µM
- inhibition at 315.8 µM ([1]; read-out: Inhibition (%) BChE): 69.9%

Compound: Cc1cccc2c1ccc1ocnc12 [Compound 23]
- inhibition at 297.5 µM ([1]; read-out: Inhibition (%) BChE): 20.6%

Compound: Clc1ncc(/C=C/c2cccs2)s1 [trans-3a, (E)-2-chloro-5-(2-(thiophen-2-yl)vinyl)thiazole]
- inhibitory activity toward BChE (in words) [1]: ineffective inhibitors
- inhibition at 250 µM ([1]; read-out: Inhibition (%) BChE): 10%

Compound: CCC(C)Nc1ncc(/C=C/c2cccs2)s1 (stereo not drawn) [trans-9a, (E)-N-(sec-butyl)-5-(2-(thiophen-2-yl)vinyl)thiazol-2-amine]
- solubility (in words) [3]: limited solubility
- inhibition at 100 µM ([1]; read-out: Inhibition (%) BChE): 47.7%

Compound: Clc1nc(N2CCCC2)sc1/C=C/c1cccs1 [trans-10a, (E)-4-chloro-2-(pyrrolidin-1-yl)-5-(2-(thiophen-2-yl)vinyl)thiazole]
- solubility (in words) [3]: limited solubility
- inhibition at 100 µM ([1]; read-out: Inhibition (%) BChE): 25.3%

Compound: (E)-2-(2-(2-methylthiazol-5-yl)vinyl)phenol [trans-8a]
- IC50 [1]: 25.2 µM
- Inhibition (%) BChE ([1]; 250 μM): 80.5 (250) %

Compound: (E)-2-isopropyl-5-(2-(thiophen-2-yl)vinyl)thiazole [trans-2a]
- Inhibition (%) BChE ([1]; 250 μM): 45.8 (250) %

Compound: (E)-2-methyl-5-(2-(thiophen-2-yl)vinyl)thiazole [trans-1a]
- IC50 [1]: 181 µM
- Inhibition (%) BChE ([1]; 500 μM): 64.0 (500) %

Compound: (Z)-2-isopropyl-5-(2-(thiophen-2-yl)vinyl)thiazole [cis-2a]
- Inhibition (%) BChE ([1]; 250 μM): 45.5 (250) %

Compound: (Z)-2-methyl-5-(2-(thiophen-2-yl)vinyl)thiazole [cis-1a]
- inhibitory activity toward BChE (in words) [1]: ineffective inhibitors
- Inhibition (%) BChE ([1]; 500 μM): 36.4 (500) %
